In ChEMBL document CHEMBL3507680, “University of Dundee, Gates Library screen for HepG2 cell viability”:

Assay: Human HepG2 cell viability assay in 384 well format
Type: toxicity, cell-based
Parameters: dose 125 nL, time 70.5 hour; cytotoxicity at 70.5 h: concentration not given beside the values
Conditions: HepG2 cells, read-out: Inhibition

SMILES	cytotoxicity at 70.5 h [%]
CCOC(=O)C1(Cc2cccc(OC)c2)CCN(Cc2ccon2)CC1	-11.6
CCN1CC(C(=O)N2CCc3cc(C(N)=O)n(C)c3C2)CC1=O (stereo not given)	-2.91
Nc1cc(C(=O)N2CCC(Oc3cccc(C(F)(F)F)c3)CC2)ccn1	-3.83
CCO[C@H]1CN(C)C[C@@H]1NC(=O)c1cc(C)nc2ccc(C)cc12	-6.33
CCN(CC)S(=O)(=O)N1CCCC(c2nccn2Cc2cccnc2)C1 (stereo not given)	-5.79
COc1cccc2c1OCC(NCc1cnn(-c3ccccc3F)c1)C2 (stereo not given)	-0.785
Cc1cc2ccccc2n1CCC(=O)N1CCCCC1CCO (stereo not given)	-6.95
Cc1nc2c(c(NC3CC3)n1)CCN(C(=O)CCc1cccnc1)CC2	12.4
CNc1nc(C(=O)N2C[C@H]3CC[C@@H]2CN(C2CCOCC2)C3)cs1	-10.2
CCc1nc(C)c(C2CC(=O)Nc3c2c(C(C)(C)C)nn3C)[nH]1 (stereo not given)	0.46
CC(C)=CCN1C(=O)[C@H]2CC[C@@H]1CN(c1ncccn1)C2	-21
CC(=O)c1cn(CC(=O)N2CCC(O)(CO)CC2)c2ccccc12	-0.902
O=C(O)C1(n2ccc(-c3ccco3)n2)CCN(Cc2ccsc2)CC1	-1.95
Cn1ncc2c(N3CCN4CCCCC4C3)nc(C3CCCC3)nc21 (stereo not given)	-0.0598
Cc1nc(C(=O)N2CCN(C(=O)C3CCC3)[C@@H]3CS(=O)(=O)C[C@@H]32)cs1	2.83
C=C(C)COc1ccccc1C(=O)N1CCC(C(=O)NCC)C1 (stereo not given)	-0.0263
OC(c1ccccn1)C1CCN(Cc2cc3n(n2)CCNC3)CC1 (stereo not given)	17.1
CCC(CO)N(Cc1cccnc1)C(=O)c1ccc(C)[nH]c1=O (stereo not given)	-7.73
Cc1cc(C(F)(F)F)nc(CNc2nc(C)nc3c2cnn3C)n1	-7.38
Cc1nc2cc(C(=O)N3C[C@@H](C(=O)O)[C@H](C4CC4)C3)ccc2[nH]1	-3.58
Cc1nc(C)c(C)c(NCc2cnn3cccnc23)n1	3.17
O=C(c1cccnc1)C1CCCN(c2nnc(C3CC3)o2)C1 (stereo not given)	-1.21
CCCN1CCC(Cc2noc(-c3[nH]cnc3C)n2)CC1	6.08
Cc1nn(C)c2nc(N(C)CCN(C)C3CCCC3)sc12	5.16
O=C(c1ccccc1)N1CCCC(Nc2ccc(F)cc2)C1 (stereo not given)	-1.68
COc1cccc([C@@H]2CCN(Cc3[nH]nc(C)c3Cl)C[C@H]2O)c1	-22.1
Cc1ccc(-c2cc(-c3nc(CN4CCN(C)CC4)no3)[nH]n2)s1	-10.5

SMILES	cytotoxicity at 70.5 h [%]
C[C@@H]1CN(C(=O)CSc2nncn2C)C[C@@]1(O)C1CC1	-4.21
Cc1cc(C(=O)N2CC[C@@]3(O)CCN(S(C)(=O)=O)C[C@H]3C2)c(C)n1C	18.6
CC(C)c1nccn1Cc1cc(C(=O)NCC(C)n2ccnc2)n[nH]1 (stereo not given)	-6.98
Cc1ccc(C(C(=O)NCCN2CCC(CO)CC2)N(C)C)cc1 (stereo not given)	27.1
CCn1cc(CN(C)c2nc(C)c3ccc(S(C)(=O)=O)cc3n2)cn1	-5.64
COCCN(Cc1ccncc1)C(=O)CCSCc1ccc(F)cc1	20
CC(C(=O)N(C)C)N1CCc2onc(-c3cccc(F)c3)c2C1 (stereo not given)	-5.12
C=C(C)COc1cccc(C(=O)N(C)C(C)c2c(C)n[nH]c2C)c1 (stereo not given)	-4.42
COc1cnc(N2CCN(C)CC2)nc1-c1ccnn1C	-6.6
CN(CCc1cnn(C)c1)C(=O)CN1C(=O)OC[C@@H]1c1ccccc1	-5.22
Cc1cc(C)nc(CCNc2nccc(CCC(F)(F)F)n2)n1	8.35
Cc1cccc2[nH]c(C3CCCN(Cc4ccc(CO)o4)C3)nc12 (stereo not given)	4.96
CC(C)[C@@H]1CN(C(=O)C2(c3ccccc3)CCN(C)CC2)C[C@H]1N(C)C	9.05
CC(C)CN1CC(C(=O)NCCc2c[nH]cn2)CC1=O (stereo not given)	-0.927
CC(=O)NCC1CCCN(Cc2nc(Cc3ccccc3F)no2)C1 (stereo not given)	0.817
COc1cc2c(cc1-c1nc3c(cnn3C(C)C)[nH]1)OCO2	-0.0981
CC(C)c1cc(NCc2csc(C(C)C)n2)nc(N)n1	24.3
CC(C)(O)c1cn(C2CCN(C(=O)CCc3ccncc3)CC2)nn1	-4.73
Cc1[nH]c2ccccc2c1CCNc1ncnc2c1CCNCC2	0.111
O=c1cnc2ccccc2n1CCCn1cccn1	24.6
CCN1CC(C(=O)N2CC(Oc3ccccc3Cl)C2)CC1=O (stereo not given)	-1.71
Cc1cnc(NCCCN2CCCCC2CO)nc1 (stereo not given)	-1.85
CCC(CO)N(Cc1ccsc1)CC1CC1 (stereo not given)	-4.03
Cc1nc[nH]c1CNCc1cccnc1N(C)C1CCCCC1	-6
NS(=O)(=O)c1ccc(F)c(C(=O)NCCSC2CCCCC2)c1	-9.09
O=C(c1cnc2c(c1)CCC2)N1CCCC(CO)(CC2CC2)C1 (stereo not given)	-9.59
O=C(c1cnc(COc2ccccc2)nc1O)N1CCC(F)(F)CC1	-5.82

SMILES	cytotoxicity at 70.5 h [%]
Cc1nc(N(C)C)ncc1C(=O)NCCCn1nccc1C1CC1	6.49
O=C(CN1CCCC1c1nc(-c2ccccn2)no1)N1CCOCC1 (stereo not given)	-7.89
CCN(C)Cc1n[nH]c(=O)n1-c1ccc(C)c(C)c1	-11.7
O=C(CN1CCC2(CCCN(CCO)C2=O)C1)NCCc1ccccc1 (stereo not given)	11.6
CCN(CCOC)C(=O)CCc1scnc1C	-2.82
CN(Cc1ccc2nsnc2c1)CC1(O)CNCCOC1 (stereo not given)	-6.32
Nc1ccc(C(=O)N2CCC(Oc3cccc(C(F)(F)F)c3)CC2)cn1	-0.861
COCCN1CC(c2nc(CSC)no2)CCC1=O (stereo not given)	2.97
N#Cc1ccc(Oc2cc(F)c(CN3CCCC3)c(F)c2)nc1	-2.2
CC(C)[C@H]1CN(S(C)(=O)=O)C[C@@H]1NC(=O)c1ccnc(N)c1	-1.08
COCc1noc(-c2ccc(N3CCC[C@H]3CO)nc2)n1	-7.06
Nc1cc(-c2cc[nH]n2)nc(N2CCCC2)n1	5.5
Cc1ncsc1CCN(C)C(=O)CN1C(=O)OC[C@@H]1c1ccccc1	4.46
O=C1CCCCCN1CCc1nc(-c2cccnn2)no1	-6.78
CN1CCN(c2cccc(NC(=O)NCc3csc(N(C)C)n3)c2)C1=O	35.3
CC1c2cccn2CCN1C(=O)CCc1nc(-c2ccccc2)no1 (stereo not given)	-5.32
CC(C)Cc1ncc2c(n1)CN(c1nccc(NC(C)C)n1)C2	2.52
CNc1ncccc1C(=O)N1CCN(C)C2(CCN(C)CC2)C1	-7.09
Cc1ccc(CSc2nc(N)cc(NCCS(=O)(=O)N(C)C)n2)cc1	-2.68
CCCc1cc(C(=O)N(C)Cc2ccc(OC)c3ncccc23)n(C)n1	2
O[C@H]1Cc2ccccc2[C@H]1n1ccnc1-c1cc2n(n1)CCNC2	-2.39
COCCN1C[C@H]2CC[C@@H]1CN(C(=O)CCn1cc(Cl)cn1)C2	-10.6
Cc1ccc2nc(C(=O)N3C[C@@H](C(=O)O)[C@H](c4cccnc4)C3)cn2c1	-5.46
N[C@H]1CN(C(=O)c2ccccc2OCCc2ccccc2)C[C@@H]1C1CC1	-8.08
CCn1cnnc1Cn1cccc(C(F)(F)F)c1=O	4.98
CCc1cnc(C)nc1NC(CC)c1cnn(C)c1 (stereo not given)	-2.39
